Source: BindingDB's records for doi:10.1016/j.bmcl.2003.12.063 (Sankyo, 2004)

Each molecule was assayed against Ileal sodium/bile acid cotransporter (Mesocricetus auratus) (assay: In vitro Inhibition of apical sodium-dependent bile acid transporter by measuring the uptake of [3H]taurocholate in hamster ileal ring).
With `CCN(C(=O)c1cn(-c2cc(OC)cc(OC)c2)c2cc(OCCCCCCC[N+]34CCN(CC3)CC4)ccc2c1=O)c1cc(F)cc(F)c1` [1-{7-[3-[(3,5-Difluoro-phenyl)-ethyl-carbamoyl]-1-(3,5-dimethoxy-phenyl)-4-oxo-1,4-dihydro-quinolin-7-yloxy]-heptyl}-4-aza-1-azonia-bicyclo[2.2.2]octane; bromide] the IC50 was 0.77 µM.
`CCCCC1(CCCC)CS(=O)(=O)c2ccc(N(C)C)cc2[C@@H](c2ccc(OC)cc2)[C@H]1O` [(4R,5R)-3,3-Dibutyl-7-dimethylamino-5-(4-methoxy-phenyl)-1,1-dioxo-2,3,4,5-tetrahydro-1H-1lambda*6*-benzo[b]thiepin-4-ol] gave an IC50 greater than 63 µM.
`CCC(CC)CC(=O)c1c(C(=O)OC)c(-c2ccc(OC)c(OC)c2)c2c(OC)c(OC)c(OC)cc2c1OC1O[C@H](C(=O)O)[C@@H](O)[C@H](O)[C@H]1O` (stereo partly drawn) [(2S,3S,4S,5R)-6-[4-(3,4-Dimethoxy-phenyl)-2-(3-ethyl-pentanoyl)-5,6,7-trimethoxy-3-methoxycarbonyl-naphthalen-1-yloxy]-3,4,5-trihydroxy-tetrahydro-pyran-2-carboxylic acid] was tested, and the IC50 was 2.8 µM.
`CCN(C(=O)c1cn(-c2cc(OC)cc(OC)c2)c2cc(OCCCCCCCC[N+]34CCN(CC3)CC4)ccc2c1=O)c1cc(F)cc(F)c1` [1-{8-[3-[(3,5-Difluoro-phenyl)-ethyl-carbamoyl]-1-(3,5-dimethoxy-phenyl)-4-oxo-1,4-dihydro-quinolin-7-yloxy]-octyl}-4-aza-1-azonia-bicyclo[2.2.2]octane; bromide] showed an IC50 of 1.07 µM.
For `CCC(CC)CC(=O)c1c(C(=O)OC)c(-c2ccc(OC)c(OC)c2)c2c(OC)c(OC)c(OC)cc2c1O` [1-(3,4-Dimethoxy-phenyl)-3-(3-ethyl-pentanoyl)-4-hydroxy-6,7,8-trimethoxy-naphthalene-2-carboxylic acid methyl ester], the IC50 was greater than 185 µM.
